Laboratory results reported in patent US20250114460A1, “NOVEL PLK1 DEGRADATION INDUCING COMPOUND” (UPPTHERA, INC., priority 2021, published 2025).

target: T1, PLK1 (Homo sapiens, UniProt P53350); assay: Luciferase assay for PLK1 in HeLa LgBit (Plk1-HiBit KI) cell line; format: cell-based; conditions: 300 nM compound, luminescence after 9 hours
T1 construct: endogenous in cells; host or cells: HeLa LgBit (Plk1-HiBit KI): HeLa stably expressing LgBit, with a CRISPR/Cas9 knock-in of HiBit at the endogenous PLK1 locus
T1 sequence (P53350 whole entry): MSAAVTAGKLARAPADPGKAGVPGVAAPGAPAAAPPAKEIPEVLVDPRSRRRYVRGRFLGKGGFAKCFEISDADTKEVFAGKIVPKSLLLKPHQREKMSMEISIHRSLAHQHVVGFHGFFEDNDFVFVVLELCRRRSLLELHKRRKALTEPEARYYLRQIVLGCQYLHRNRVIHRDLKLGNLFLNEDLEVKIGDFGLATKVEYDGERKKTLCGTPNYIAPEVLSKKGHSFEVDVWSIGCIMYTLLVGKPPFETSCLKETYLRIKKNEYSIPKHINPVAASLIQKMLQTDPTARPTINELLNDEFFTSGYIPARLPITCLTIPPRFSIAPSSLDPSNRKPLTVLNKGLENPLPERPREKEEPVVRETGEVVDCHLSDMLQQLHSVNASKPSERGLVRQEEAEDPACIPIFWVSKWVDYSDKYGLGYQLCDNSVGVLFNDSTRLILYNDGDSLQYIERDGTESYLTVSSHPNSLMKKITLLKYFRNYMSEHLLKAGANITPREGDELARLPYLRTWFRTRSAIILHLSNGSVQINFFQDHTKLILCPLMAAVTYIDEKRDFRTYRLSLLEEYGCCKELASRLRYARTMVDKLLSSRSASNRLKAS
Method: 2. Luciferase Assay for PLK1
(1) Preparation and Culture of HeLa LgBit (Plk1-HiBit KI) Cell Line
A HeLa cell line in which the LgBit vector was transfected and expressed stably was prepared. Then, after constructing gRNA and donor to express the HiBit amino acid sequence behind the C-terminal of the Plk1 gene, which was inherent in the cell, it was inserted into the cell together with a vector capable of expressing CRISPR/Cas9. Only the cells in which the insertion was completed and knock-in had progressed were selected, sub-cultured and used.
(2) Treatment of Compounds of the Present Invention and Method of Luciferase Assay
In the case of HeLa LgBit (Plk1-HiBit KI), the compounds were treated after being released after thymidine block, and the process was as follows. Thymidine (Sigma-Aldrich Cat. No. T9250-5G) was completely dissolved in DW and used in the experiment. For thymidine block, the products were treated with 2 mM of thymidine and then incubated for 24 hours. For release and chemical treatment, the medium was suctioned and washed with 1×PBS. TrypLE™ was added and incubated in 37° C. CO2 incubator for 5 min. Cells neutralized by adding complete media were counted through a counter. For each well of a 96-well culture plate (SPL), 3.3×10^4 cells and a total medium volume of 150 μL were seeded and incubated in a CO2 incubator.
Each cell line was incubated in a CO2 incubator for 18 hours, and Endurazine was added to each well to make up 4% of the total volume. After adding the compound of the present invention in a 96-well white plate (SPL) to a concentration of 300 nM, the wavelength of the plate reader (BMG Labtech, CLARIOstar Plus) was set to […], and then the luminescence was tracked in real time.
In Table 2, Activity represents the ratio of the luminescense value of each Exemplary Compound treatment group to DMSO treatment group (+++: <0.3, ++<0.6, +<0.7).

Row | Activity: ratio of the luminescense value of each Exemplary Compound treatment group to DMSO treatment group | SMILES
1 | ++ (++<0.6) | COc1cc(C(=O)N2CCC(CN3CCN(c4cccc5c4C(=O)N(C4CCC(=O)NC4=O)C5=O)CC3)CC2)ccc1Nc1ncc2c(n1)N(C1CCCC1)CC(F)(F)C(=O)N2C (centres unmarked) [Compound 93, 4-(4-((1-(4-((9-cyclopentyl-7,7-difluoro-5-methyl-6-oxo-6,7,8,9-tetrahydro-5H-pyrimido[4,5-b][1,4]diazepin-2-yl)amino)-3-methoxybenzoyl)piperidin-4-yl)methyl)piperazin-1-yl)-2-(2,6-dioxopiperidin-3-yl)isoindoline-1,3-dione]
2 | ++ (++<0.6) | COc1cc(C(=O)N2CCC(CCCN3CCN(c4cccc5c4C(=O)N(C4CCC(=O)NC4=O)C5=O)CC3)CC2)ccc1Nc1ncc2c(n1)N(C1CCCC1)CC(F)(F)C(=O)N2C (centres unmarked) [Compound 95, 4-(4-(3-(1-(4-((9-cyclopentyl-7,7-difluoro-5-methyl-6-oxo-6,7,8,9-tetrahydro-5H-pyrimido[4,5-b][1,4]diazepin-2-yl)amino)-3-methoxybenzoyl)piperidin-4-yl)propyl)piperazin-1-yl)-2-(2,6-dioxopiperidin-3-yl)isoindoline-1,3-dione]
3 | ++ (++<0.6) | COc1cc(C(=O)N2CCC(CCCCN3CCN(c4cccc5c4C(=O)N(C4CCC(=O)NC4=O)C5=O)CC3)CC2)ccc1Nc1ncc2c(n1)N(C1CCCC1)CC(F)(F)C(=O)N2C (centres unmarked) [Compound 96, 4-(4-(4-(1-(4-((9-cyclopentyl-7,7-difluoro-5-methyl-6-oxo-6,7,8,9-tetrahydro-5H-pyrimido[4,5-b][1,4]diazepin-2-yl)amino)-3-methoxybenzoyl)piperidin-4-yl)butyl)piperazin-1-yl)-2-(2,6-dioxopiperidin-3-yl)isoindoline-1,3-dione]
4 | ++ (++<0.6) | COc1cc(C(=O)N2CCC(CCCCN3CCN(c4ccc5c(c4)C(=O)N(C4CCC(=O)NC4=O)C5=O)CC3)CC2)ccc1Nc1ncc2c(n1)N(C1CCCC1)CC(F)(F)C(=O)N2C (centres unmarked) [Compound 100, 5-(4-(4-(1-(4-((9-cyclopentyl-7,7-difluoro-5-methyl-6-oxo-6,7,8,9-tetrahydro-5H-pyrimido[4,5-b][1,4]diazepin-2-yl)amino)-3-methoxybenzoyl)piperidin-4-yl)butyl)piperazin-1-yl)-2-(2,6-dioxopiperidin-3-yl)isoindoline-1,3-dione]
5 | ++ (++<0.6) | COc1cc(C(=O)N2CCC(CN3CCN(c4cc5c(cc4F)C(=O)N(C4CCC(=O)NC4=O)C5=O)CC3)CC2)ccc1Nc1ncc2c(n1)N(C1CCCC1)CC(F)(F)C(=O)N2C (centres unmarked) [Compound 101, 5-(4-((1-(4-((9-cyclopentyl-7,7-difluoro-5-methyl-6-oxo-6,7,8,9-tetrahydro-5H-pyrimido[4,5-b][1,4]diazepin-2-yl)amino)-3-methoxybenzoyl)piperidin-4-yl)methyl)piperazin-1-yl)-2-(2,6-dioxopiperidin-3-yl)-6-fluoroisoindoline-1,3-dione]
6 | ++ (++<0.6) | COc1cc(C(=O)NC2CC(N(C)CC3CCN(c4ccc5c(c4)C(=O)N(C4CCC(=O)NC4=O)C5=O)CC3)C2)ccc1Nc1ncc2c(n1)N(C1CCCC1)CC(F)(F)C(=O)N2C (centres unmarked) [Compound 104, 4-((9-cyclopentyl-7,7-difluoro-5-methyl-6-oxo-6,7,8,9-tetrahydro-5H-pyrimido[4,5-b][1,4]diazepin-2-yl)amino)-N-(3-(((1-(2-(2,6-dioxopiperidin-3-yl)-1,3-dioxoisoindolin-5-yl)piperidin-4-yl)methyl)(methyl)amino)cyclobutyl)-3-methoxybenzamide]
7 | ++ (++<0.6) | COc1cc(C(=O)NC2CC(N(C)CC3CCN(c4cccc5c4C(=O)N(C4CCC(=O)NC4=O)C5=O)CC3)C2)ccc1Nc1ncc2c(n1)N(C1CCCC1)CC(F)(F)C(=O)N2C (centres unmarked) [Compound 105, 4-((9-cyclopentyl-7,7-difluoro-5-methyl-6-oxo-6,7,8,9-tetrahydro-5H-pyrimido[4,5-b][1,4]diazepin-2-yl)amino)-N-(3-(((1-(2-(2,6-dioxopiperidin-3-yl)-1,3-dioxoisoindolin-4-yl)piperidin-4-yl)methyl)(methyl)amino)cyclobutyl)-3-methoxybenzamide]
8 | + (+<0.7) | COc1cc(N2CCC(CN3CCN(c4ccc5c(c4)C(=O)N(C4CCC(=O)NC4=O)C5=O)CC3)CC2)c(F)cc1Nc1ncc2c(n1)N(C1CCCC1)CC(F)(F)C(=O)N2C (centres unmarked) [Compound 111, 5-(4-((1-(4-((9-cyclopentyl-7,7-difluoro-5-methyl-6-oxo-6,7,8,9-tetrahydro-5H-pyrimido[4,5-b][1,4]diazepin-2-yl)amino)-2-fluoro-5-methoxyphenyl)piperidin-4-yl)methyl)piperazin-1-yl)-2-(2,6-dioxopiperidin-3-yl)isoindoline-1,3-dione]
9 | + (+<0.7) | COc1cc(N2CCC(CCN3CCN(c4ccc5c(c4)C(=O)N(C4CCC(=O)NC4=O)C5=O)CC3)CC2)c(F)cc1Nc1ncc2c(n1)N(C1CCCC1)CC(F)(F)C(=O)N2C (centres unmarked) [Compound 112, 5-(4-(2-(1-(4-((9-cyclopentyl-7,7-difluoro-5-methyl-6-oxo-6,7,8,9-tetrahydro-5H-pyrimido[4,5-b][1,4]diazepin-2-yl)amino)-2-fluoro-5-methoxyphenyl)piperidin-4-yl)ethyl)piperazin-1-yl)-2-(2,6-dioxopiperidin-3-yl)isoindoline-1,3-dione]
10 | ++ (++<0.6) | COc1cc(C(=O)N[C@H]2CC[C@H](OC3CCN(c4ccc5c(c4)C(=O)N(C4CCC(=O)NC4=O)C5=O)CC3)CC2)c(F)cc1Nc1ncc2c(n1)N(C1CCCC1)CC(F)(F)C(=O)N2C (some centres unmarked) [Compound 116, 4-((9-cyclopentyl-7,7-difluoro-5-methyl-6-oxo-6,7,8,9-tetrahydro-5H-pyrimido[4,5-b][1,4]diazepin-2-yl)amino)-N-((1r,4r)-4-((1-(2-(2,6-dioxopiperidin-3-yl)-1,3-dioxoisoindolin-5-yl)piperidin-4-yl)oxy)cyclohexyl)-2-fluoro-5-methoxybenzamide]
11 | + (+<0.7) | COc1cc(C(=O)NC2CCCN(CC3CCN(c4cccc5c4C(=O)N(C4CCC(=O)NC4=O)C5=O)CC3)C2)ccc1Nc1ncc2c(n1)N(C1CCCC1)CC(F)(F)C(=O)N2C (centres unmarked) [Compound 126, 4-((9-cyclopentyl-7,7-difluoro-5-methyl-6-oxo-6,7,8,9-tetrahydro-5H-pyrimido[4,5-b][1,4]diazepin-2-yl)amino)-N-(1-((1-(2-(2,6-dioxopiperidin-3-yl)-1,3-dioxoisoindolin-4-yl)piperidin-4-yl)methyl)piperidin-3-yl)-3-methoxybenzamide]
12 | ++ (++<0.6) | COc1cc(C(=O)Nc2ccc(OCCN3CCN(c4cccc5c4C(=O)N(C4CCC(=O)NC4=O)C5=O)CC3)cc2)c(F)cc1Nc1ncc2c(n1)N(C1CCCC1)CC(F)(F)C(=O)N2C (centres unmarked) [Compound 141, 4-((9-cyclopentyl-7,7-difluoro-5-methyl-6-oxo-6,7,8,9-tetrahydro-5H-pyrimido[4,5-b][1,4]diazepin-2-yl)amino)-N-(4-(2-(4-(2-(2,6-dioxopiperidin-3-yl)-1,3-dioxoisoindolin-4-yl)piperazin-1-yl)ethoxy)phenyl)-2-fluoro-5-methoxybenzamide]
13 | + (+<0.7) | COc1cc(C(=O)NC2CCCC(N(C)C3CCN(c4cccc5c4C(=O)N(C4CCC(=O)NC4=O)C5=O)CC3)C2)ccc1Nc1ncc2c(n1)N(C(C)C)CC(F)(F)C(=O)N2C (centres unmarked) [Compound 166, 4-((7,7-difluoro-9-isopropyl-5-methyl-6-oxo-6,7,8,9-tetrahydro-5H-pyrimido[4,5-b][1,4]diazepin-2-yl)amino)-N-(3-((1-(2-(2,6-dioxopiperidin-3-yl)-1,3-dioxoisoindolin-4-yl)piperidin-4-yl)(methyl)amino)cyclohexyl)-3-methoxybenzamide]
14 | ++ (++<0.6) | COc1cc(C(=O)NN2CCN(C3CCN(c4ccc5c(c4)C(=O)N(C4CCC(=O)NC4=O)C5=O)CC3(F)F)CC2)ccc1Nc1ncc2c(n1)N(C(C)C)CC(F)(F)C(=O)N2C (centres unmarked) [Compound 168, 4-((7,7-difluoro-9-isopropyl-5-methyl-6-oxo-6,7,8,9-tetrahydro-5H-pyrimido[4,5-b][1,4]diazepin-2-yl)amino)-N-(4-(1-(2-(2,6-dioxopiperidin-3-yl)-1,3-dioxoisoindolin-5-yl)-3,3-difluoropiperidin-4-yl)piperazin-1-yl)-3-methoxybenzamide]
